Values quoted from earlier work in paper PMC10002517, “Inhibition of Transglutaminase 2 as a Therapeutic Strategy in Celiac Disease—In Vitro Studies in Intestinal Cells and Duodenal Biopsies” (International Journal of Molecular Sciences, 2023).

Experiments:
actin rearrangement = details: cited from earlier work
Source text: (§1) Even though our results underline the significance of TG2 inhibition, further research is needed to investigate the effects of those inhibitors on gliadin-induced inflammation. In recent studies, these inflammatory mechanisms were only partially mitigated by inhibition of TG2.

[1] = system: epithelial infiltration of CD8+ T cells and mucosal damage; details: cited from earlier work
Source text: as §1

For `CC(=O)CSc1n(C)cc[n+]1C.[Cl-]` [R283], the “effect on actin rearrangement after treatment with P31-43” value (actin rearrangement) is listed as “did not prevent actin rearrangement” and the “effect on epithelial infiltration of CD8+ T cells and mucosal damage” value [1] is listed as “did not mitigate”.
